Measured values taken from US11878965B2, “Inhibitors of peptidylarginine deiminases” (Gilead Sciences, Inc., priority 2020, dated 2024).

Target: human PAD4 (Homo sapiens (Human), UniProt Q9UM07)
Assay: In Vitro PAD4 BAEE Biochemical Assay
Conditions: geometric mean of multiple experiments
In short: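 Deimination of BAEE substrate (3 mM) measured as ammonia via o-phthalaldehyde–DTT isoindole fluorescence, 405/535 nm. Tag-free bacterially expressed human PAD4 at 5 nM with 2 mM calcium chloride, pH 7.6 MOPS buffer, 30 min compound preincubation then 2 h reaction, both at 25 °C.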

[1] = human PAD4, BAEE substrate, 5 nM PAD4, 2 mM calcium chloride, 3 mM BAEE
[2] = recombinant PAD4 5 nM, 2 mM calcium chloride, 3 mM BAEE substrate

Chain of human PAD4 (Q9UM07 2-663): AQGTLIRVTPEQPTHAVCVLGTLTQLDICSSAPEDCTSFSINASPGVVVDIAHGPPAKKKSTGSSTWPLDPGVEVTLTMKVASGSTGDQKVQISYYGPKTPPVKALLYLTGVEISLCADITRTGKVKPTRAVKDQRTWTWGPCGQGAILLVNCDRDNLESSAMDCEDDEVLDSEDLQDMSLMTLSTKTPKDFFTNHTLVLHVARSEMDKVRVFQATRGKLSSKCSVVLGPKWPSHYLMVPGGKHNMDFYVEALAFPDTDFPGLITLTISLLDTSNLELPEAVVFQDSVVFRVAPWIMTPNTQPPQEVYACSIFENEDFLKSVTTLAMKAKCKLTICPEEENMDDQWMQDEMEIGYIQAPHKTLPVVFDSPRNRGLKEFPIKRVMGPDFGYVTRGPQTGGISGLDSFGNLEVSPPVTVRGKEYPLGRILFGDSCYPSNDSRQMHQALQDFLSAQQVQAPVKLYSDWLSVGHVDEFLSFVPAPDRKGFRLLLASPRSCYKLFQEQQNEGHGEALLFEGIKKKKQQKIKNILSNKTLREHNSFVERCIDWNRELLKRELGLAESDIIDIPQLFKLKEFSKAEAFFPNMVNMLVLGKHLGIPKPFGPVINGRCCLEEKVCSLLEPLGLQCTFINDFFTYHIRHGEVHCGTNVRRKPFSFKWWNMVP

Compound | IC50 [1] [nM] | IC50 [2] [nM]
COc1cc(C(=O)N2C[C@H](N)CC[C@@H]2C)cc2nc(-c3cc4ccc(-c5cccnc5-c5ccccc5)nc4n3CC3CC3)n(C)c12 [Example 283, ((2S,5R)-5-amino-2-methylpiperidin-1-yl)(2-(1-(cyclopropylmethyl)-6-(2-phenylpyridin-3-yl)-1H-pyrrolo[2,3-b]pyridin-2-yl)-7-methoxy-1-methyl-1H-benzo[d]imidazol-5-yl)methanone] | 320 | 
COc1nccc(-c2ccccc2)c1-c1ccc2cc(-c3nc4cc(C(=O)N5C[C@H](N)CC[C@@H]5C)cc(OC)c4n3C)n(CC3CC3)c2n1 [Example 277, ((2S,5R)-5-amino-2-methylpiperidin-1-yl)(2-(1-(cyclopropylmethyl)-6-(2-methoxy-4-phenylpyridin-3-yl)-1H-pyrrolo[2,3-b]pyridin-2-yl)-7-methoxy-1-methyl-1H-benzo[d]imidazol-5-yl)methanone] | 3430 | 
COC(=O)N(C)c1ccc2cc(-c3nc4cc(C(=O)N5[C@H]6CC[C@@H]5[C@H](N)C6)cc(OC)c4n3C)n(CC3CC3)c2c1 [Example 114, methyl (2-(5-((1R,2R,4S)-2-amino-7-azabicyclo[2.2.1]heptane-7-carbonyl)-7-methoxy-1-methyl-1H-benzo[d]imidazol-2-yl)-1-(cyclopropylmethyl)-1H-indol-6-yl)(methyl)carbamate] | 34.5 | 
COC(=O)N(C)c1ccc2cc(-c3nc4cc(C(=O)N5CCC[C@@H](N)C5)cc(OC)c4n3C)n(CC3CC3)c2n1 [Example 109, (R)-methyl (2-(5-(3-aminopiperidine-1-carbonyl)-7-methoxy-1-methyl-1H-benzo[d]imidazol-2-yl)-1-(cyclopropylmethyl)-1H-pyrrolo[2,3-b]pyridin-6-yl) (methyl)carbamate] | 401 | 
CCCN(c1ccc2cc(-c3nc4cc(C(=O)N5CCC[C@@H](N)C5)cc(OC)c4n3C)n(CC3CC3)c2n1)S(C)(=O)=O [Example 10, (R)-N-(2-(5-(3-aminopiperidine-1-carbonyl)-7-methoxy-1-methyl-1H-benzo[d]imidazol-2-yl)-1-(cyclopropylmethyl)-1H-pyrrolo [2,3-b]pyridin-6-yl)-N-propylmethanesulfonamide] | 330 | 
COc1cc(C(=O)N2[C@H]3CC[C@@H]2[C@H](N)C3)cc2nc(-c3cc4ccc(N(C(C)C)S(C)(=O)=O)nc4n3CC3CC3)n(C)c12 [Example 84, N-(2-(5-((1R,2R,4S)-2-amino-7-azabicyclo[2.2.1]heptane-7-carbonyl)-7-methoxy-1-methyl-1H-benzo[d]imidazol-2-yl)-1-(cyclopropylmethyl)-1H-pyrrolo[2,3-b]pyridin-6-yl)-N-isopropylmethanesulfonamide] | 58.3 | 
COc1cc(C(=O)N2CCC[C@@H](N)C2)cc2nc(-c3cc4ccc(N(CC(F)(F)F)S(C)(=O)=O)nc4n3CC3CC3)n(C)c12 [Example 16, (R)-N-(2-(5-(3-aminopiperidine-1-carbonyl)-7-methoxy-1-methyl-1H-benzo[d]imidazol-2-yl)-1-(cyclopropylmethyl)-1H-pyrrolo [2,3-b]pyridin-6-yl)-N-(2,2,2-trifluoroethyl) methanesulfonamide] | 316 | 
COc1cc(C(=O)N2CCC[C@@H](N)C2)cc2nc(-c3cc4ccc(N(C)S(=O)(=O)C(C)C)nc4n3CC3CC3)n(C)c12 [Example 9, (R)-N-(2-(5-(3-aminopiperidine-1-carbonyl)-7-methoxy-1-methyl-1H-benzo[d]imidazol-2-yl)-1-(cyclopropylmethyl)-1H-pyrrolo [2,3-b]pyridin-6-yl)-N-methylpropane-2-sulfonamide] | 238 | 
COc1cc(C(=O)N2C[C@H](N)[C@@H]3CC[C@H]2C3)cc2nc(-c3cc4ccc([C@@H](C)NC(=O)C56CC(F)(C5)C6)nc4n3CC3(F)CC3)n(C)c12 [Example 291, N-((R)-1-(2-(5-((1S,4R,5R)-4-amino-2-azabicyclo[3.2.1]octane-2-carbonyl)-7-methoxy-1-methyl-1H-benzo[d]imidazol-2-yl)-1-((1-fluorocyclopropyl)methyl)-1H-pyrrolo[2,3-b]pyridin-6-yl)ethyl)-3-fluorobicyclo[1.1.1] pentane-1-carboxamide] |  | 91.9
COc1cc(C(=O)N2C[C@H](N)[C@@H]3CC[C@H]2C3)cc2nc(-c3cc4ccc([C@@H](C)NC(=O)C56CC(C5)C6)nc4n3CC3CC3)n(C)c12 [Example 290, N-((R)-1-(2-(5-((1S,4R,5R)-4-amino-2-azabicyclo[3.2.1]octane-2-carbonyl)-7-methoxy-1-methyl-1H-benzo[d]imidazol-2-yl)-1-(cyclopropylmethyl)-1H-pyrrolo[2,3-b]pyridin-6-yl)ethyl)bicyclo[1.1.1] pentane-1-carboxamide] |  | 79.2
COc1cc(C(=O)N2[C@H]3CC[C@@H]2[C@H](N)C3)cc2nc(-c3cc4ccc([C@@H](C)N5CCCC5=O)nc4n3CC3CC3)n(C3CC3)c12 [Example 245] | 31.7 | 
COc1cc(C(=O)N2C[C@H](N)[C@@H]3CC[C@H]2C3)cc2nc(-c3cc4ccc([C@@H](C)NC(=O)[C@]5(C)CC5(F)F)nc4n3CC3CC3)n(C)c12 [Example 331, (S)-N-((R)-1-(2-(5-((1S,4R,5R)-4-amino-2-azabicyclo[3.2.1]octane-2-carbonyl)-7-methoxy-1-methyl-1H-benzo[d]imidazol-2-yl)-1-(cyclopropylmethyl)-1H-pyrrolo[2,3-b]pyridin-6-yl)ethyl)-2,2-difluoro-1-methylcyclopropane-1-carboxamide] |  | 71
COc1cc(C(=O)N2C[C@H](N)CCN2C)cc2nc(-c3cc4ccc([C@@H](C)NC(=O)C5(c6ccccc6)CC5)nc4n3CC3CC3)n(C)c12 [Example 160, N-((R)-1-(2-(5-((R)-5-amino-2-methylhexahydropyridazine-1-carbonyl)-7-methoxy-1-methyl-1H-benzo[d]imidazol-2-yl)-1-(cyclopropylmethyl)-1H-pyrrolo[2,3-b]pyridin-6-yl)ethyl)-1-phenylcyclopropane-1-carboxamide] | 481 | 

Next, values leading:

IC50 [1] [nM] | IC50 [2] [nM] | Compound
92.1 |  | COc1cc(C(=O)N2C[C@H](N)CCN2C)cc2nc(-c3cc4ccc([C@@H](C)NC(=O)C5CC(F)(F)C5)nc4n3CC3CC3)n(C)c12 [Example 162, N-((R)-1-(2-(5-((R)-5-amino-2-methylhexahydropyridazine-1-carbonyl)-7-methoxy-1-methyl-1H-benzo[d]imidazol-2-yl)-1-(cyclopropylmethyl)-1H-pyrrolo[2,3-b]pyridin-6-yl)ethyl)-3,3-difluorocyclobutane-1-carboxamide]
166 |  | C[C@@H](NC(=O)N(C)C)c1ccc2cc(-c3nc4cc(C(=O)N[C@H]5CNCC[C@@H]5F)c(F)cc4n3C)n(CC3CC3)c2n1 [Example 239, 2-(1-(cyclopropylmethyl)-6-((R)-1-(3,3-dimethylureido)ethyl)-1H-pyrrolo[2,3-b]pyridin-2-yl)-6-fluoro-N-((3S,4S)-4-fluoropiperidin-3-yl)-1-methyl-1H-benzo[d]imidazole-5-carboxamide]
48.1 |  | COc1cc(C(=O)N2C[C@H](N)[C@@H]3CC[C@H]2C3)cc2nc(-c3cc4ccc([C@@H](C)NC(=O)c5ccc(Cl)nc5)nc4n3CC3CC3)n(C)c12 [Example 225, N-((R)-1-(2-(5-((1S,4R,5R)-4-amino-2-azabicyclo[3.2.1]octane-2-carbonyl)-7-methoxy-1-methyl-1H-benzo[d]imidazol-2-yl)-1-(cyclopropylmethyl)-1H-pyrrolo[2,3-b]pyridin-6-yl)ethyl)-6-chloronicotinamide]
136 |  | COc1cc(C(=O)N2CCC[C@@H](N)C2)cc2nc(-c3cc4ccc(N(C5CCC5)S(C)(=O)=O)nc4n3CC3CC3)n(C)c12 [Example 15, (R)-N-(2-(5-(3-aminopiperidine-1-carbonyl)-7-methoxy-1-methyl-1H-benzo[d]imidazol-2-yl)-1-(cyclopropylmethyl)-1H-pyrrolo [2,3-b]pyridin-6-yl)-N-cyclobutylmethanesulfonamide]
111 |  | COc1cc(C(=O)N2C[C@H](N)CCN2C)cc2nc(-c3cc4ccc([C@@H](C)NC(=O)C5(CCF)CC5)nc4n3CC3CC3)n(C)c12 [Example 215, N-((R)-1-(2-(5-((R)-5-amino-2-methylhexahydropyridazine-1-carbonyl)-7-methoxy-1-methyl-1H-benzo[d]imidazol-2-yl)-1-(cyclopropylmethyl)-1H-pyrrolo[2,3-b]pyridin-6-yl)ethyl)-1-(2-fluoroethyl)cyclopropane-1-carboxamide]
76.2 |  | COc1cc(C(=O)N2C[C@H](N)CCN2C)cc2nc(-c3cc4ccc([C@@H](C)NC(=O)Cc5ccccc5)nc4n3CC3CC3)n(C)c12 [Example 158, N-((R)-1-(2-(5-((R)-5-amino-2-methylhexahydropyridazine-1-carbonyl)-7-methoxy-1-methyl-1H-benzo[d]imidazol-2-yl)-1-(cyclopropylmethyl)-1H-pyrrolo[2,3-b]pyridin-6-yl)ethyl)-2-phenylacetamide]
89.6 |  | CS(=O)(=O)N(c1ccc2cc(-c3nc4cc(C(=O)N5C[C@H]6CC[C@@H]5[C@@H]6N)ccc4n3C3CC3)n(CC3CC3)c2n1)C(F)F [Example 55, N-(2-(5-((1R,4R,7R)-7-amino-2-azabicyclo[2.2.1]heptane-2-carbonyl)-1-cyclopropyl-1H-benzo[d]imidazol-2-yl)-1-(cyclopropylmethyl)-1H-pyrrolo[2,3-b]pyridin-6-yl)-N-(difluoromethyl) methanesulfonamide]
82.1 |  | COc1cc(C(=O)N2C[C@H](N)CCN2C)cc2nc(-c3cc4ccc([C@@H](C)NC(=O)C56CC(C5)C6)nc4n3CC3CC3)n(C)c12 [Example 185, N-((R)-1-(2-(5-((R)-5-amino-2-methylhexahydropyridazine-1-carbonyl)-7-methoxy-1-methyl-1H-benzo[d]imidazol-2-yl)-1-(cyclopropylmethyl)-1H-pyrrolo[2,3-b]pyridin-6-yl)ethyl)bicyclo[1.1.1]pentane-1-carboxamide]
